Reference: article PMC2783692 (Analytical biochemistry, 2009)

What was measured:
[1] = target: cannabinoid (CB1) receptor; test: PWR ligand binding to native rat trigeminal ganglion membrane fragments; details: Figure 4, negative spectral shifts
chromatophore membranes = test: PWR ligand binding to deposited chromatophore membrane fragments; design: species or system Rhodopseudomonas sphaeroides
[2] = PWR ligand binding to bare sensor surface; details: bare sensor versus chromatophore membrane fragments

## CCCCCCC(C)(C)c1ccc([C@@H]2C[C@H](O)CC[C@H]2CCCO)c(O)c1 [CP 55,940]
[1]
  KD values compared with radioligand binding and lipid bilayer PWR studies: excellent agreement

## Cc1c(C(=O)c2cccc3ccccc23)c2cccc3c2n1[C@H](CN1CCOCC1)CO3 [WIN 55,212–2]
[1]
  KD values compared with radioligand binding and lipid bilayer PWR studies: excellent agreement

## bovine serum albumin: control protein replacing cyt c2
Chromatophore membranes; control protein replacing cyt c2, up to 100 μM protein
  changes in PWR spectral position (binding): did not observe any measurable changes

B1: cyt c2: Reduced Rhodobacter capsulatus cytochrome (cyt) c2, isolated and purified (protein, UniProt P00094 22-137, looked up)
Cytochrome c2: GDAAKGEKEFNKCKTCHSIIAPDGTEIVKGAKTGPNLYGVVGRTAGTYPEFKYKDSIVALGASGFAWTEEDIATYVKDPGAFLKEKLDDKKAKTGMAFKLAKGGEDVAAYLASVVK
modifications: reduced
Chromatophore membranes; read-out: apparent binding constant (KD), PWR, reduced cyt c2, hyperbolic fit, minimum of three separate experiments
  Kd: 2500 nM
[2]
  binding weaker on bare sensor than on chromatophore fragments: approximately 10 fold
